The values that follow come from paper PMC8042013 (Nature Communications, 2021).

This assay addresses T1, OsCERK1-ECD (Oryza sativa, UniProt A0A0P0XII1).
T1 construct: gene CERK1; N-terminal gp67 signal peptide for secretion, C-terminal His6; baculovirus, Trichoplusia ni High Five cells; secreted soluble protein
T1 sequence (A0A0P0XII1 19-240 limits assumed): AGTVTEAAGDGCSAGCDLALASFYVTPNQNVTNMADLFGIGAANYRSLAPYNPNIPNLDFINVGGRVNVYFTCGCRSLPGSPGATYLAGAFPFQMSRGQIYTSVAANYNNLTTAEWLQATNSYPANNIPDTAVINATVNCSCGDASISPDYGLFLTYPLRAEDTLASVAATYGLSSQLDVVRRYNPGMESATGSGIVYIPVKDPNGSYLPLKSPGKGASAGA
The assay can be described thus: microscale thermophoresis, label-free. The assay is classed as binding. Conditions: 50 mM Tris-HCl pH 7.8, 150 mM NaCl, 10 mM MgCl2, 0.05% Tween-20. (In general: Microscale thermophoresis detects binding through changes in fluorescence in a small temperature gradient.)
For the compound `OC[C@H]1O[C@@H](O[C@H]2[C@H](O)[C@@H](O)[C@H](O[C@H]3[C@H](O)[C@@H](O)[C@H](O[C@H]4[C@H](O)[C@@H](CO)OC(O)[C@@H]4O)O[C@@H]3CO)O[C@@H]2CO)[C@H](O)[C@@H](O)[C@@H]1O` (stereo partly drawn) [BGTETB, 3^1-β-D-cellotriosyl-glucose], the Kd (commonly the equilibrium constant for the complex coming apart) was 2.9 ± 0.57 µM. `OC[C@H]1O[C@@H](O[C@@H]2[C@@H](O)[C@H](O[C@H]3[C@H](O)[C@@H](O)C(O)O[C@@H]3CO)O[C@H](CO)[C@H]2O)[C@H](O)[C@@H](O)[C@@H]1O` (stereo partly drawn) [BGTRIA, 3^2-β-D-glucosyl-cellobiose] registered a Kd of 4.38 ± 0.58 µM.

With `OC[C@H]1O[C@@H](O[C@H]2[C@H](O)[C@@H](O)[C@H](O[C@H]3[C@H](O)[C@@H](CO)OC(O)[C@@H]3O)O[C@@H]2CO)[C@H](O)[C@@H](O)[C@@H]1O` (stereo partly drawn) [BGTRIB, 3^1-β-D-cellobiosyl-glucose], the affinity, expressed as Kd, was 1.95 ± 0.45 µM. Compound `OC[C@H]1O[C@@H](O[C@H]2[C@H](O)[C@@H](O)[C@H](O[C@H]3[C@H](O)[C@@H](O)[C@H](O[C@H]4[C@H](O)[C@@H](O)C(O)O[C@@H]4CO)O[C@@H]3CO)O[C@@H]2CO)[C@H](O)[C@@H](O)[C@@H]1O` (some centres unmarked) [CTE, cellotetraose] returned a Kd of 2.84 ± 0.89 µM.

`OC[C@H]1O[C@@H](O[C@H]2[C@H](O)[C@@H](O)[C@H](O[C@H]3[C@H](O)[C@@H](O)C(O)O[C@@H]3CO)O[C@@H]2CO)[C@H](O)[C@@H](O)[C@@H]1O` (some centres unmarked) [CTR, cellotriose] returned a Kd of 4.28 ± 1.67 µM.
